{
  "source": "patent US12478081B2",
  "about": "“Application of aspartic acid derivative in preparing animal feed additive” (ANIPHA TECHNOLOGIES PTY LTD, priority 2018, dated 2025)",
  "key": {"weaned piglets": {"tested_on": "weaned piglets", "assay": "Breeding test: production performance of weaned piglets", "type": "in vivo, Duroc×Landrace×Yorkshire cross-bred weaned piglets", "conditions": "weaned piglets, 1000 ppm metal ion salt in basal daily ration, 40 days", "text": "From 95 litters of 28±2 days old Duroc×Landrace×Yorkshire cross-bred weaned piglets, 360 clinically healthy piglets with similar body weights were selected as test pigs, which were randomly divided into 12 groups, with 3 replications per group and 10 pigs (half of male and female) per replication. The piglets were attracted to the food trough at the age of 7 days, and the hog house for 28-day-old weaned pigs has a cement floor, steel fence, good ventilation, and suitable temperature. The pigpens and utensils were sterilized before the test.\nDuring the test period, the test pigs were free-stall housed in the same pigpen under the same feeding and management conditions, and were free to drink water and eat feed. The hog house was cleaned once a day, and the floor is washed once every three days to maintain clean and hygienic conditions. The test pigs were fed three times a day. The test groups include control and test groups. Group I is the control group, in which only the basal daily ration was fed to the piglets. […] 1000 ppm of a the aspartic acid derivative metal ion salt was added into the basal daily ration for the piglets in the groups VIII-XII, as shown in Table 2. No other antioxidant ingredients or growth promoters were added for the test groups during the entire feeding process. The test period was 40 days.\nThe test pigs were weighed during 7:00 to 9:00 in the morning of Day 0 and Day 40 after the start of the test. During the test period, the feed intake and health status of the piglets were observed every day, the remaining daily ration was weighed, the feed consumption was recorded, and the average daily feed intake (ADFI, g/d*each pig), the average daily gain (ADG, g/d*each pig), and the feed conversion ratio (FCR) were calculated. Calculation formulas are as follows: […]\nThe test data was statistically analyzed using SPSS18 software. First, a one-way analysis of variance (ANOVA) was performed on the data. If the difference between treatments is significant, Duncan's method was used for multiple comparisons, and the significance level was 0.05."}, "[1]": {"assay": "Thermal stability of compounds at 60° C. (HPLC content of raw material and 2% premix)", "type": "physicochemical", "conditions": "for Detection result of the content of test sample (%) Day 5: Day 5, relative to Day 0; for Detection result of the content of test sample (%) Day 10: Day 10, relative to Day 0", "method": "The variations of the contents of the main ingredient of the aspartic acid derivative raw material and the main ingredient of a premix containing 2% mass fraction of the aspartic acid derivative (hereinafter referred to as 2% premix) over time were investigated under the conditions of stability test at 60° C.\nExperimental apparatus: drug stability incubator, Waters high-performance liquid chromatograph (HPLC), etc.\nTest samples: N-carbamoyl-DL-aspartic acid (compound 1), diethyl N-carbamoyl-DL-aspartate (compound 2), Sodium N-carbamoyl-DL-aspartate (compound 3), Calcium N-carbamoyl-DL-aspartate (compound 4), Zinc N-carbamoyl-DL-aspartate (compound 5), Copper N-carbamoyl-DL-aspartate (compound 6), Iron N-carbamoyl-DL-aspartate (compound 7), N-glycyl-DL-aspartic acid (compound 8), N-(4-aminobutyryl)-DL-aspartic acid (compound 9), N-(10-aminodecanoyl)-DL-aspartic acid (compound 10), N-(14-aminomyristoyl)-DL-aspartic acid (compound 11).\nPreparation of standard solution: 50 mg of the test sample raw material was ultrasonically dissolved in 50 mL of water to obtain a working reserve solution. An appropriate amount of the working reserve solution was taken and diluted with water respectively to concentrations of 125 ppm, 250 ppm, 500 ppm, and 1000 ppm for HPLC testing. It was checked whether the sample concentrations are in a linear relationship with the peak area response values in HPLC, and a standard curve was established.\nPreparation of test solution: An appropriate amount of the test sample raw material and an appropriate amount of a premix containing 2% mass fraction of the test sample (hereinafter referred to as 2% premix) were separately ultrasonically dissolved in an appropriate amount of water to form a 1000 ppm solution, which is filtered through a 0.22 µm filter membrane and then analyzed by HPLC.\nHPLC analysis conditions: chromatographic column: Waters C18 column (250 mm×4.6 mm, 5 μm); mobile phase: 0.05% phosphoric acid:methanol=95:5 (v:v) (raw material); 0.05% phosphoric acid: methanol (gradient elution); methanol: 5%→40% (0-15 min) curve 6, 40%→5% (15-16 min) curve 1, 5% (16-23 min) curve 1, (premix, feed); detection wavelength: 210 nm; column temperature: 25° C.; sample size: 20 μL; flow rate: 1 mL/min.\nTest method: The test sample raw material and its 2% premix were placed in a culture plate, spread into a thin layer of <5 mm, and placed at 60° C. Samples were taken on the day 5 and ? day 10 for HPLC detection. Each sample was sampled three times in parallel."}},
  "note": "Marks after values point to notes of the source that are not given here.",
  "data": [
    {"smiles": "NC(=O)NC(CC(=O)[O-])C(=O)[O-].[Na+].[Na+]", "note": "(racemic) [Compound 3, Sodium N-carbamoyl-DL-aspartate]", "values": [
      {"measurement": "ADFI (g/d*each pig)", "setting": "weaned piglets", "value": "388 ± 11^bc g/d*each pig"},
      {"measurement": "ADG (g/d*each pig)", "setting": "weaned piglets", "value": "182 ± 2^d g/d*each pig"},
      {"measurement": "FCR", "setting": "weaned piglets", "value": "2.13 ± 0.04"},
      {"measurement": "Detection result of the content of test sample (%) Day 5", "setting": "[1]; 2% premix", "value": 99.33, "unit": "%"},
      {"measurement": "Detection result of the content of test sample (%) Day 10", "setting": "[1]; 2% premix", "value": 99.21, "unit": "%"},
      {"measurement": "Detection result of the content of test sample (%) Day 5", "setting": "[1]; Raw material", "value": 103.02, "unit": "%"},
      {"measurement": "Detection result of the content of test sample (%) Day 10", "setting": "[1]; Raw material", "value": 103.53, "unit": "%"}
    ]},
    {"smiles": "NC(=O)NC(CC(=O)[O-])C(=O)[O-].[Cu+2]", "note": "(racemic) [Compound 6, Copper N-carbamoyl-DL-aspartate]", "values": [
      {"measurement": "ADFI (g/d*each pig)", "setting": "weaned piglets", "value": "329 ± 13^a g/d*each pig"},
      {"measurement": "ADG (g/d*each pig)", "setting": "weaned piglets", "value": "156 ± 1^c g/d*each pig"},
      {"measurement": "FCR", "setting": "weaned piglets", "value": "2.11 ± 0.07"},
      {"measurement": "Detection result of the content of test sample (%) Day 5", "setting": "[1]; 2% premix", "value": 98.28, "unit": "%"},
      {"measurement": "Detection result of the content of test sample (%) Day 10", "setting": "[1]; 2% premix", "value": 97.94, "unit": "%"},
      {"measurement": "Detection result of the content of test sample (%) Day 5", "setting": "[1]; Raw material", "value": 99.91, "unit": "%"},
      {"measurement": "Detection result of the content of test sample (%) Day 10", "setting": "[1]; Raw material", "value": 98.31, "unit": "%"}
    ]},
    {"smiles": "NC(=O)NC(CC(=O)[O-])C(=O)[O-].[Zn+2]", "note": "(racemic) [Compound 5, Zinc N-carbamoyl-DL-aspartate]", "values": [
      {"measurement": "ADFI (g/d*each pig)", "setting": "weaned piglets", "value": "418 ± 19^c g/d*each pig"},
      {"measurement": "ADG (g/d*each pig)", "setting": "weaned piglets", "value": "198 ± 3^6 g/d*each pig"},
      {"measurement": "FCR", "setting": "weaned piglets", "value": "2.11 ± 0.07"},
      {"measurement": "Detection result of the content of test sample (%) Day 5", "setting": "[1]; 2% premix", "value": 96.89, "unit": "%"},
      {"measurement": "Detection result of the content of test sample (%) Day 10", "setting": "[1]; 2% premix", "value": 96.36, "unit": "%"},
      {"measurement": "Detection result of the content of test sample (%) Day 5", "setting": "[1]; Raw material", "value": 99.76, "unit": "%"},
      {"measurement": "Detection result of the content of test sample (%) Day 10", "setting": "[1]; Raw material", "value": 98.47, "unit": "%"}
    ]},
    {"smiles": "NC(=O)NC(CC(=O)[O-])C(=O)[O-].[Fe+2]", "note": "(racemic) [Compound 7, Iron N-carbamoyl-DL-aspartate]", "values": [
      {"measurement": "ADFI (g/d*each pig)", "setting": "weaned piglets", "value": "330 ± 11^a g/d*each pig"},
      {"measurement": "ADG (g/d*each pig)", "setting": "weaned piglets", "value": "153 ± 1^bc g/d*each pig"},
      {"measurement": "FCR", "setting": "weaned piglets", "value": "2.15 ± 0.06"},
      {"measurement": "Detection result of the content of test sample (%) Day 5", "setting": "[1]; 2% premix", "value": 96.74, "unit": "%"},
      {"measurement": "Detection result of the content of test sample (%) Day 10", "setting": "[1]; 2% premix", "value": 94.98, "unit": "%"},
      {"measurement": "Detection result of the content of test sample (%) Day 5", "setting": "[1]; Raw material", "value": 97.63, "unit": "%"},
      {"measurement": "Detection result of the content of test sample (%) Day 10", "setting": "[1]; Raw material", "value": 96.01, "unit": "%"}
    ]},
    {"smiles": "NC(=O)NC(CC(=O)[O-])C(=O)[O-].[Ca+2]", "note": "(racemic) [Compound 4, Calcium N-carbamoyl-DL-aspartate]", "values": [
      {"measurement": "ADFI (g/d*each pig)", "setting": "weaned piglets", "value": "333 ± 8^a g/d*each pig"},
      {"measurement": "ADG (g/d*each pig)", "setting": "weaned piglets", "value": "157 ± 0^c g/d*each pig"},
      {"measurement": "FCR", "setting": "weaned piglets", "value": "2.13 ± 0.05"},
      {"measurement": "Detection result of the content of test sample (%) Day 5", "setting": "[1]; 2% premix", "value": 98.93, "unit": "%"},
      {"measurement": "Detection result of the content of test sample (%) Day 10", "setting": "[1]; 2% premix", "value": 97.99, "unit": "%"},
      {"measurement": "Detection result of the content of test sample (%) Day 5", "setting": "[1]; Raw material", "value": 101.54, "unit": "%"},
      {"measurement": "Detection result of the content of test sample (%) Day 10", "setting": "[1]; Raw material", "value": 101.87, "unit": "%"}
    ]}
  ]
}
